Laboratory results from patent US20110183929A1, “STANDARDIZED EXTRACT AND FRACTION FROM HANCORNIA SPECIOSA LEAVES AND PHARMACEUTICAL COMPOSITION THEREOF” (priority 2008, published 2011).

Assays:
normotensive mice = experiment: systolic pressure in normotensive mice (caudal vessel); type: in vivo; conditions: 1 mg/kg delivered orally
[1] = molecular target: T1, angiotensin converting enzyme (ACE) (Oryctolagus cuniculus, UniProt P12822); experiment: colorimetric ACE inhibition assay (Serra et al.); type: biochemical; conditions: read-out: ACE inhibiting activity IC50
T1 sequence (P12822 34-1310): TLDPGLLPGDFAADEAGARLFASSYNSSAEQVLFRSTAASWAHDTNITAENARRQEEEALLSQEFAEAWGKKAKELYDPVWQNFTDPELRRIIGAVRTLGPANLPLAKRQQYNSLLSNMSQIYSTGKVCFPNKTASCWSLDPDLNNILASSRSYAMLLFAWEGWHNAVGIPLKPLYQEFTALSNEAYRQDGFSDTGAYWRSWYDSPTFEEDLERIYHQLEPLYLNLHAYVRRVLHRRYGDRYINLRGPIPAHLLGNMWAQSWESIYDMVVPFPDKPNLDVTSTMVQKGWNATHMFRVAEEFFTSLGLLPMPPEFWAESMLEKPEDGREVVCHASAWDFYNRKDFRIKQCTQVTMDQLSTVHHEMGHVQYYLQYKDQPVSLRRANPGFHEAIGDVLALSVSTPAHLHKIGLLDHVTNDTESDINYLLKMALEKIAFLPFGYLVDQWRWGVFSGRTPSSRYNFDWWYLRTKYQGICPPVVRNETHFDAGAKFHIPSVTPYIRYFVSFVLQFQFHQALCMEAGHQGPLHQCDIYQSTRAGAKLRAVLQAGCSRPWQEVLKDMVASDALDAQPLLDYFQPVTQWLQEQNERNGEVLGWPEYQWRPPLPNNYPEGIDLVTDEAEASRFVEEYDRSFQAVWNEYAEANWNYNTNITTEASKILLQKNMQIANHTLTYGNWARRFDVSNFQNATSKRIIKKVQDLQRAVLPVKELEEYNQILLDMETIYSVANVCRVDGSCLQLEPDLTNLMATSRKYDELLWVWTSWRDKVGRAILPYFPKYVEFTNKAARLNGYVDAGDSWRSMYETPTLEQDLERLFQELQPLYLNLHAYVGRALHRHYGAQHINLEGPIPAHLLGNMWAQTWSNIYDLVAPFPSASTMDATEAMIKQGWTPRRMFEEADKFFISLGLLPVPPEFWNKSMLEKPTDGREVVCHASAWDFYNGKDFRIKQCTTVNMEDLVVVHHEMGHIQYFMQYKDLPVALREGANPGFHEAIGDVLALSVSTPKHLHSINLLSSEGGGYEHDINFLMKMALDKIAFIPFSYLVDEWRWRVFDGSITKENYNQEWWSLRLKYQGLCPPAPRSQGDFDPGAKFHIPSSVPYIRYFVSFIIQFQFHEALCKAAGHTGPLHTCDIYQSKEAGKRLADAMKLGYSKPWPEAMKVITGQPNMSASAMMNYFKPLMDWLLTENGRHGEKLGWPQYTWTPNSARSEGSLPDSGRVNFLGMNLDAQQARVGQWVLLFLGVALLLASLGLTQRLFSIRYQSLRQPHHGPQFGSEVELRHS
Description: Despite being exhaustively referred to in ethnobotanic surveys, only few biological activities of Hancornia speciosa have been assessed. ACE inhibiting activity for ethanolic extract from the leaves of the said species has been referred to by Serra et al. (Serra, C. P.; Cortes, S. F.; Lombardi, J. A.; Braga De Oliveira, A.; Braga, F. C. Validation of a […] assay for the in vitro screening of inhibitors of angiotensin-converting enzyme (ACE) from plant extracts. Phytomedicine, v. 12, n. 6-7, 2005). These authors assessed several species of the Brazilian flora as for their ACE inhibiting potential. […] P.; Cortes, S. F.; Lombardi, J. A.; Braga De Oliveira, A.; Braga, F. C. Validation of a colorimetric assay for the in vitro screening of inhibitors of angiotensin-converting enzyme (ACE) from plant extracts. Phytomedicine, v. 12, n. 6-7, 2005), in the concentration of 0.1 mg/ml.

SMILES | systolic arterial pressure / hypotensive effect (normotensive mice) | IC50 [1] [µM]
C[C@H](CS)C(=O)N1CCC[C@H]1C(=O)O [Captopril] | significant hypotensive effect, but of low intensity and short duration | 
COC1[C@H](O)[C@H](O)C(O)[C@H](O)[C@H]1O (stereo partly drawn) [L-(+)-bornesitol] |  | 41.4 ± 9.6
C[C@@H]1O[C@@H](OC[C@H]2O[C@@H](Oc3c(-c4ccc(O)c(O)c4)oc4cc(O)cc(O)c4c3=O)[C@H](O)[C@@H](O)[C@@H]2O)[C@H](O)[C@H](O)[C@H]1O [rutin] |  | 454 ± 78.4
